{"source": "patent US20260130999A1", "about": "“METHODS FOR TREATING CANCERS ASSOCIATED WITH ETBR ACTIVATION” (ENB Therapeutics, Inc., priority 2022, published 2026)", "test_system": "4T-1-HER2 mammary tumors", "test": "4T1-HER2 mammary tumors in syngeneic female BALB/c mice treated with anti-HER2 CAR-T, BQ-788-B and anti-PD1", "assay_type": "in vivo", "excerpt": "Lentivirus for expression of an anti-HER2 CAR was produced by co-transfecting 293T-17 cells with lentiviral vector pLVX-EF1α-CAR-IRES-ZsGreen1 together with the packaging plasmids pSPAX2 and pMD2.G. Splenocytes from 6-week old female BALB/c mice were isolated by density-gradient centrifugation using a lymphocyte separation medium, Histopaque, activated in 24-well plates at a density of 1×10^6 cell/ml using a mouse T Cell Activation/Expansion Kit for 2-3 days, and then transduced with pLVX-EF1α-CAR-IRES-ZsGreen1 lentivirus at the multiplicity of infection of 20 in the presence of 8 µg/mL polybrene by centrifugation at 1,500×g for 2 hours at 32° C. GFP+ transduced T cells were analyzed by flow cytometry to evaluate the lentiviral transduction efficiency.\n4T1-HER2 cells (4×10^6), were resuspended in 0.1 mL PBS and mixed with 0.1 mL Matrigel and injected subcutaneously into the right back region of BALB/c female mice (6-week-old, weighed 17-20 g). Tumor growth was monitored by caliper measurement every three days.\nAbout 14 days after 4T-1-HER2 cell injection, when the tumor diameter reaches about 6 mm in diameter, mice were randomized into eight groups for treatments (6 mice per group).\nBlank T or CAR-T cells (1×10^7 cells/mice) were injected intravenously into each mouse on day 11 and day 18 post-tumor inoculation. BQ-788-B ([…]) or PBS was administered via subcutaneous injection into each mouse, starting on day 10, every two or three days for a total of 9 injections. All mice were injected intraperitoneally with 20,000 IU IL-2 once every 2 days from day 14 to […] (Note: day 0 is defined as when 4T1-HER2 cells are injected into mice). Anti-PD1 or isotype control Ig (230 ug/mouse) was injected IP every 4 days, starting on day 11 post tumor inoculation (4 injections total). The eight treatment groups are listed below: • 1) Blank T+PBS+isotype • 2) CAR-T+PBS+isotype • 3) BQ-788-B+Blank T+isotype • 4) Blank T+PBS+anti-PD1 • 5) BQ-788-B+CAR-T+ isotype • 6) CAR-T+PBS+anti-PD1 • 7) BQ-788-B+Blank T+anti-PD1 • 8) BQ-788-B+CAR-T+ anti-PD1\nTumor growth was monitored by caliper measurement every three days. On the 30th day after 4T1-HER2 cell injection, all mice were euthanized by asphyxiation with CO2 followed by cervical dislocation. All tumors were dissected out and photographed before fixation in 10% formalin.", "data": [{"smiles": "[2H]C[C@@H]1CCC[C@H](C[2H])N1C(=O)N[C@@H](CC(C)(C)C)C(=O)N[C@H](Cc1cn(C(=O)OC)c2ccccc12)C(=O)N[C@H](CCCC)C(=O)O", "note": "[BQ-788-B]", "values": [{"measurement": "tumor volumes at day 29", "setting": "BQ-788-B in combination with anti-PD1 and/or CAR-T therapy, compared to control, CAR-T alone, or PD-1 alone, FIG. 4", "result": "significantly reduced tumor volumes"}, {"measurement": "tumor weights at day 30", "setting": "BQ-788-B in combination with anti-PD1 and/or CAR-T therapy, compared to control, CAR-T alone, or PD-1 alone, FIGS. 5A and 5B", "result": "significantly reduced tumor weights"}, {"measurement": "anti-tumor efficacy of CAR-T cells, of anti-PD-1 antibody therapy and of their combinations", "setting": "addition of BQ-788-B", "result": "significantly enhances the anti-tumor efficacy"}, {"measurement": "tumor suppression at later time points", "setting": "addition of BQ-788-B in mice treated with either anti-PD1 or CAR-T therapy", "result": "enhanced tumor suppression"}]}]}
